Measured values: patent US20110160303A1, “N-ALKYLCARBONYL-AMINO ACID ESTER AND N-ALKYLCARBONYL-AMINO LACTONE COMPOUNDS AND THEIR USE” (Edward Tak WEI, priority 2005, published 2011)

Legend:
oral cavity = assay: Oral cavity test, substance placed on dorsal surface of the tongue; type: in vivo, human; settings: for sensory irritation in the mouth: Study 7, same test conditions
Description: The subject is instructed to close and hold the substance in the mouth for at least 10 seconds and not to swallow. The description of sensations is then recorded at 5 minute intervals.
The compounds of Formula (1) and (2) are white crystalline solids at room temperatures. These compounds were tested as such, or mixed 1:1 with powdered or granulated sugar. The test substances were applied at 1 to 5 mg on the mid-point of the dorsal surface of the tongue using a metal spatula or a plastic applicator. After depositing the test substance on the tongue, the subject was instructed to keep the mouth closed and allow the fluids of the mouth to inter-mix with the test substance and to distribute it to the back of the mouth (oropharynx). The presence and duration of subjective sensations from the mouth was then noted.
In normal subjects, the effects of the D-Ala methyl and ethyl ester compounds falling within Formula (1) ((R)-2-[((1R,2S,5R)-2-isopropyl-5-methyl-cyclohexanecarbonyl)-amino]-propionic acid methyl or ethyl ester)) were examined. Three doses of 1, 2 and 4 mg per application were examined and compared to a similar dose of the L-Ala methyl or ester analog ((S)-2-[((1R,2S,5R)-2-isopropyl-5-methyl-cyclohexanecarbonyl)-amino]-propionic acid methyl or ethyl ester). At the 2 or 4 mg dose, all compounds produced pleasant and robust cooling sensations on the tongue, extending down to the back of throat, and lasted for about 30 minutes and longer. The onset effect was usually within 30 seconds of application.

periorbital area = assay: Study 4: 1% ointment applied bilaterally to the periorbital area; type: in vivo, human; settings: for irritation of skin and eye surfaces: periorbital application
From the text: A 1% preparation of 2-isopropyl-5-methyl-cyclohexanecarbonyl D-alanine methyl ester in Aquaphor® ointment was applied bilaterally to the periorbital area of four individuals. […] This alerting effect lasted for about one hour. This experiment was then repeated three days later in the evening with the same individuals whose occupations required daylong activities before a computer screen. Again, application of the ointment about the periorbital area was reported to relieve fatigue, enhance visual acuity, and to increase attention span and focus. Sensations of refreshment and improved mood were also noted.

[1] = test system: irritated skin (acneiform dermatitis treated with Tazorac); assay: Study 5: ointment on skin irritated by Tazorac; type: in vivo, human; settings: 1.5% in Aquaphor
Description: A person was treated with Tazorac® (tazarotene topical gel) for acneiform dermatitis on their cheeks. After using these medications for several days, they noted redness, itching, and uncomfortable burning sensations on the skin where these medications had been placed. A 1.5% preparation of 2-isopropyl-5-methyl-cyclohexanecarbonyl α-alanine methyl ester in Aquaphor® ointment was then applied to the sites of irritation. Sensations of coolness on the skin were noted within 5 minutes and lasting for an average of 30 minutes. The discomfort of the irritated skin was abated within five minutes and the subject felt better.

face = assay: Study 3: towelette used to wipe the face; type: in vivo, human
Description: 2-Isopropyl-5-methyl-cyclohexanecarbonyl D-alanine methyl ester was dissolved in warm 10% propylene-glycol/90% distilled water solution to give a concentration of either 0.1 or 0.5% wt/vol (1 or 5 mg/mL). Six to seven milliliters of these solutions were then applied with a pipette onto a paper napkin (Luncheon Napkins, Kirkland Signature brand from Costco, Inc.) The napkin was 1-ply with a 30.4×29.5 cm dimension. Each napkin was then hermetically sealed in a plastic envelope (Foodsaver by Tilia). On two separate occasions involving golfing trips to Los Angeles, Calif., USA, where air temperatures exceeded […] (90° F.), these towelettes were used to wipe the face. Pleasant cooling sensations were obtained that lasted for about 10 minute for the 0.1% concentration towelette and about 60 minutes for the 0.5% towelette.

skin above the upper lip = assay: Cooling sensation on facial skin, ointment applied to skin above the upper lip; type: in vivo, human; set-up: key to refreshing cooling and absence of skin irritation or eye irritation (“perfect cool”): (*) denotes compounds with refreshing cooling and absence of skin irritation or eye irritation after facial skin or periorbital applications; a “perfect cool.”; settings: for Duration of Skin Cooling: 40 mM (1% wt/vol) ointment; for Duration of Skin Cooling / Duration of Action On-Off (minutes): On (onset) / Duration of Action On-Off (minutes): duration (offset minus onset) / Duration of Action On-Off (minutes): Off (offset): skin above upper lip; for Duration of Action On-Off (minutes): On (onset): 40 mM (~1% wt/vol) Aquaphor ointment, 40 to 70 mg, time to reach 2 units of coolness; for Duration of Action On-Off (minutes): duration (offset minus onset) / Duration of Action On-Off (minutes): Off (offset): 40 mM Aquaphor ointment; for Duration of Action On-Off (minutes): Off (offset): time when coolness drops below 2 units; for refreshing cooling and absence of skin irritation or eye irritation (“perfect cool”): after facial skin or periorbital applications
From the text: A reliable place for topical application is the skin above the upper lip (above the vermilion border of the lips), on the philtrum, lateral to the philtrum until the nasolabial folds, and on the lower nostrils (subnasale). This part of the face is known to be densely innervated with cold receptors, second only to the surfaces of the eyeball and anogenitalia. A second location is on or below the malar eminence (cheekbone). The skin above the cheekbone is thicker than above the lips, and therefore has a higher threshold for activation. At both loci, tingling, cool and cold sensations in the skin may be experienced and rated for time of onset and intensity.
The intensity of the subjective skin sensation is rated as 0, 1, 2 or 3 with: 0 as no change; 1 as slight coolness, cold, or tingling; 2 as clear-cut signal of coolness, cold, or tingling; and 3 as robust cooling or cold. The intervals for recording sensations are 5 to 10 minutes, until two successive zeroes are obtained. The results (shown in FIGS. 1 and 2) are averaged values of 4 to 6 separate trials in the same individual. The data are plotted using SigmaPlot® (Systat Software, Point Richmond Calif.) and a smoothing function with a negative exponential was used for analysis and statistical fit of the results. Confirmatory trials of cooling action of the long-acting NACE compounds were obtained in 2 to 4 individuals but not quantified for some because of the large number of chemicals that were evaluated.
(§1) The onset of drug action is taken as the time to reach 2 units of coolness intensity, and offset of drug action is the time when coolness intensity drops below 2, after previously surpassing 2 units. The duration of cooling action is defined as the offset time minus the onset time. […] The quality of the sensation is noted, for example, as pure refreshing coolness, or if the sensation is accompanied by irritation (stinging or burning). The quality of the sensation is not rated for intensity.
For bioassay on the skin, approximately 30 mg was stirred and dissolved in 3 g of warm liquid Aquaphor® ointment to a yield a 40 mM (˜1% wt/vol) ointment. The exact amount was adjusted so that the molar equivalent was about 35 to 40 mM. After cooling, 40 to 70 mg of the solid ointment was placed on the tip of a plastic stick and applied to the skin above the upper lip, on the philtrum, and lateral to the philtrum, up to the nasolabial folds, of test subjects and the onset and duration of cooling sensations noted.
The intensity of the subjective skin sensation was rated as 0, 1, 2 or 3 with: 0 as no change; 1 as slight coolness, cold, or tingling; 2 as clear signal of coolness, cold, or tingling; and 3 as robust cooling or cold. The intervals for recording sensations were 5 to 10 minutes, until two successive zeroes were obtained. The results (shown in FIGS. 1 and 2) are averaged values of 4 to 6 separate trials in the same individual. The data are plotted using SigmaPlot® (Systat Software, Point Richmond, Calif., USA) and a smoothing function with a negative exponential was used for analysis and statistical fit of the results.
as §1, with “was” for “is”, “was also noted: such” for “is noted, for example,”
Test compounds were singly applied to the skin above the upper lips at a 40 to 70 mg dose of a 1% wt/vol ointment.

[2] = Octanol/water partition coefficient; type: physicochemical
Description: The octanol/water partition coefficients (given in log P units) for a number of compounds were determined and are shown in Table 7, together with the threshold for cooling on the tongue tested at 40 mM. […] A longer duration of action was not precisely matched with log P values.

tongue = assay: Threshold for cooling on the tongue; type: in vivo, human; settings: for Threshold tongue: threshold for cooling on the tongue
Description: Watson et al. (U.S. Pat. No. 4,178,459) tested the properties of N-substituted p-menthane carboxamides on volunteers by putting filter paper (1×1 cm), impregnated with a known amount of compound, onto the dorsal surface of the tongue of the test subject. After 30 seconds, the subject was required to report presence or absence of a cooling effect. […] The average threshold of (−)-menthol for 6 subjects was 0.25 μg, but there was a 100-fold variation in individual sensitivity. As noted above, coolness signals detected from the dorsal surface of the tongue may be confounded by gustatory, olfactory, and other variables, as well as by dilution from saliva. The octanol/water partition coefficients (given in log P units) for a number of compounds were determined and are shown in Table 7, together with the threshold for cooling on the tongue tested at 40 mM. […] A longer duration of action was not precisely matched with log P values.

[3] = 1% in Aquaphor, periorbital, four individuals

Row | Compound | irritation of skin and eye surfaces (periorbital area) | Duration of Skin Cooling (skin above the upper lip) [h] | Duration of Action On-Off (minutes): On (onset) (skin above the upper lip) [min] | Duration of Action On-Off (minutes): duration (offset minus onset) (skin above the upper lip) [min] | Duration of Action On-Off (minutes): Off (offset) (skin above the upper lip) [min] | refreshing cooling and absence of skin irritation or eye irritation (“perfect cool”) (skin above the upper lip) | Threshold tongue (tongue) [µg] | Log P [2] | other results
1 | COC(=O)[C@@H](C)NC(=O)[C@@H]1C[C@H](C)CC[C@H]1C(C)C [D-Ala Me Ester, (R)-2-[((1R,2S,5R)-2-isopropyl-5-methyl-cyclohexanecarbonyl)-amino]-propionic acid methyl ester] | No irritation of the eye surfaces | 1.9 | 1 | 114 | 115 | D-Ala Me Ester (*) |  |  | duration of cooling sensations on the tongue (oral cavity; dose of 1 to 2 mg, normal subjects): about 30 minutes; duration of alerting effect (periorbital area; 1% in Aquaphor, periorbital): about one; duration of coolness on the skin (average) (periorbital area; [3]): 30 min; onset of coolness on the skin (periorbital area; [3]): ≤ 1 min; duration of coolness on irritated skin (average) [1]: 30 min; time until discomfort of the irritated skin was abated [1]: five; onset of sensations of coolness on irritated skin ([1]; one subject): ≤ 5 min; duration of pleasant cooling sensations, 0.1% towelette (face; 0.1% wt/vol in 10% propylene-glycol/90% water on napkin, face): about 10 minute; eye irritation (face; 0.1 or 0.5% towelette): No eye irritation; duration of pleasant cooling sensations, 0.5% towelette (face; 0.5% wt/vol in 10% propylene-glycol/90% water on napkin, face): about 60 minutes
2 | CCOC(=O)CNC(=O)[C@@H]1C[C@H](C)CC[C@H]1C(C)C [Gly Et Ester (WS-5), N-p-menthanecarbonyl glycine ethyl ester, reference compound] |  | 0.5 | 4 | 33 | 37 | Gly Et Ester (WS-5) (*) | 0.2 |  | logP [2]: 2.9; sensory irritation in the mouth (oral cavity): some sensory irritation
3 | CCOC(=O)CN(C)C(=O)C1CC(C)CCC1C(C)C (stereo not drawn) [Sar Et Ester] |  | 1.0 | 2 | 63 | 65 | Sar Et Ester (*) | 0.8 | 2.9 | sensory irritation in the mouth (oral cavity): some sensory irritation; times less potent than WS-11 on the tongue threshold test (tongue; in vivo): 2.7 times; duration of action relative to WS-11 (skin above the upper lip; in vivo): five
4 | CCNC(=O)C1CC(C)CCC1C(C)C (stereo not drawn) [WS-3, reference compound] | significant skin and eye irritation |  | 5 |  | 23 |  | 0.2 | 3.7 | 
5 | CC1CCC(C(C)C)C(C(=O)NC(C)(C)CO)C1 (stereo not drawn) [WS-11, reference compound] | significant skin and eye irritation | 0.2 | 8 | 10 | 18 |  | 0.3 | 2.9 | 
6 | CC1CCC(C(C)C)C(C(=O)NC(C)(C)C)C1 (stereo not drawn) [WS-14, reference compound] | significant skin and eye irritation | 0.1 | 15 | 8 | 23 |  | 0.4 | 4.5 | 
7 | CNC(=O)C(C)(C(C)C)C(C)C [WS-23, N-2,3-trimethyl-2-isopropylbutanamide, reference compound] | significant skin and eye irritation |  |  |  |  |  |  |  | 
